System: 3D NHL spheroids with active immune cells
Assay: Proteomic analysis of perfusate media from 3D NHL (lymphoma) spheroids on-chip
Type: cell-based
Details: significantly higher than lenalidomide-treated monocultures or spheroids with inactive immune cells, data not shown

Nc1cccc2c1CN(C1CCC(=O)NC1=O)C2=O (centres unmarked) [lenalidomide]
secretion of IL8: increased secretion
secretion of cytolytic granzyme B: increased secretion
